Data published in PubChem BioAssay (NCI).
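A five-concentration, 48-hour dose response in 96-well plates underlies each endpoint, interpolated linearly between surrounding concentrations. TGI: total growth inhibition.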

Columns and labels:
Experiment in all cases: inhibition of tumour cell growth, NCI panel, 48 h
[1] = test system: KM12 colon
[2] = test system: T-47D breast
[3] = test system: SF-295 CNS
[4] = test system: RXF 393 renal
[5] = test system: DU-145 prostate
[6] = test system: U251 CNS
[7] = test system: PC-3 prostate
[8] = test system: MDA-N
[9] = test system: MOLT-4 leukemia
[10] = test system: SK-OV-3 ovarian
[11] = test system: HS 578T breast
[12] = test system: CAKI-1 renal
[13] = test system: SW-620 colon
[14] = test system: OVCAR-5 ovarian
[15] = test system: SK-MEL-2 melanoma
[16] = test system: A549 NSCLC
[17] = test system: SF-268 CNS
[18] = test system: NCI-H460 lung
[19] = test system: HCT-116 colon
[20] = test system: SN12C renal
[21] = test system: OVCAR-3 ovarian
[22] = test system: SR leukemia
[23] = test system: UO-31 renal
[24] = test system: MDA-MB-231 breast
[25] = test system: HOP-62 NSCLC
[26] = test system: SNB-19 CNS
[27] = test system: K-562 leukemia
[28] = test system: ACHN renal
[29] = test system: HCT-15 colon
[30] = test system: NCI-H23 lung
[31] = test system: IGROV1 ovarian
[32] = test system: 786-0 renal
[33] = test system: UACC-62 melanoma
[34] = test system: NCI-H226 lung
[35] = test system: BT-549 breast
[36] = test system: SK-MEL-28 melanoma
[37] = test system: SNB-75 CNS
[38] = test system: NCI-H522 lung
[39] = test system: EKVX NSCLC
[40] = test system: UACC-257 melanoma
[41] = test system: CCRF-CEM leukemia
[42] = test system: SK-MEL-5 melanoma
[43] = test system: HOP-92 NSCLC
[44] = test system: COLO 205 colon
[45] = test system: MCF7 breast
[46] = test system: M14 melanoma
[47] = test system: OVCAR-4 ovarian
[48] = test system: HCC-2998 colon
[49] = test system: OVCAR-8 ovarian
[50] = test system: MALME-3M melanoma
[51] = test system: RPMI-8226 leukemia
[52] = test system: MDA-MB-435
[53] = test system: HT29 colon
[54] = test system: A498 renal
[55] = test system: HL-60(TB) leukemia
[56] = test system: NCI/ADR-RES ovarian
[57] = test system: LOX IMVI melanoma
[58] = test system: TK-10 renal

`CC1(C)CC[C@]2(C(=O)O)CC[C@]3(C)C(=CC[C@@H]4[C@@]5(C)CC[C@H](OC6OC(C(=O)O)C(O)C(O)C6O)C(C)(C)[C@@H]5CC[C@]43C)[C@@H]2C1` (some centres not stated) gave a TGI [1] of 34.7 µM, a TGI [2] of 36.3 µM and a TGI [3] of 28.7 µM. It also gave a TGI [4] of 31.1 µM, a TGI [5] of 31.4 µM and a TGI [6] of 28 µM. The TGI [7] was 33 µM, the TGI [8] was 33.8 µM and the TGI [9] was 41.3 µM. It also gave a TGI [10] of 41.6 µM, a TGI [11] of 44 µM and a TGI [12] of 33.7 µM. For the same molecule, the TGI [13] was 31.8 µM, the TGI [14] was 29.7 µM and the TGI [15] was 29.8 µM. It also gave a TGI [16] of 39.3 µM, a TGI [17] of 38.6 µM and a TGI [18] of 37.2 µM. For the same molecule, the TGI [19] was 30.4 µM, the TGI [20] was 30.8 µM and the TGI [21] was 28 µM. It also gave a TGI [22] of 41.1 µM, a TGI [23] of 36.3 µM and a TGI [24] of 33.5 µM. For the same molecule, the TGI [25] was 33.9 µM, the TGI [26] was 48.7 µM and the TGI [27] was 37.5 µM. The TGI [28] was 29.6 µM, the TGI [29] was 30.6 µM and the TGI [30] was 37.1 µM. For the same molecule, the TGI [31] was 35 µM, the TGI [32] was 33.6 µM and the TGI [33] was 33.4 µM. For the same molecule, the TGI [34] was 39.5 µM, the TGI [35] was 40.5 µM and the TGI [36] was 39.7 µM. It also gave a TGI [37] of 35.1 µM, a TGI [38] of 35.3 µM and a TGI [39] of 64.8 µM. The TGI [40] was 30.8 µM, the TGI [41] was 42.8 µM and the TGI [42] was 33.2 µM. It also gave a TGI [43] of 25.9 µM, a TGI [44] of 30.8 µM and a TGI [45] of 40.8 µM. The TGI [46] was 30.6 µM, the TGI [47] was 33.9 µM and the TGI [48] was 38.2 µM. For the same molecule, the TGI [49] was 44.9 µM, the TGI [50] was 34.2 µM and the TGI [51] was 44.4 µM. The TGI [52] was 38.5 µM, the TGI [53] was 28.4 µM and the TGI [54] was 35.7 µM. It also gave a TGI [55] of 35.5 µM, a TGI [56] of 37.2 µM and a TGI [57] of 35.8 µM.

`CC1(C)COP(=S)(c2ccccn2)O[C@@H]1c1ccccc1` (some centres not stated) showed a TGI [1] of over 100 µM, a TGI [2] of over 100 µM and a TGI [3] of over 100 µM. It also gave a TGI [4] of over 100 µM, a TGI [5] of over 100 µM and a TGI [6] of over 100 µM. For the same molecule, the TGI [7] was over 100 µM, the TGI [8] was over 100 µM and the TGI [9] was over 100 µM. The TGI [10] was over 100 µM, the TGI [11] was over 100 µM and the TGI [12] was over 100 µM. For the same molecule, the TGI [13] was over 100 µM, the TGI [14] was over 100 µM and the TGI [16] was over 100 µM. It also gave a TGI [17] of over 100 µM, a TGI [18] of over 100 µM and a TGI [19] of over 100 µM. It also gave a TGI [20] of over 100 µM, a TGI [22] of over 100 µM and a TGI [23] of over 100 µM. The TGI [24] was over 100 µM, the TGI [25] was over 100 µM and the TGI [26] was over 100 µM. The TGI [58] was over 100 µM, the TGI [27] was over 100 µM and the TGI [28] was over 100 µM. The TGI [29] was over 100 µM, the TGI [30] was over 100 µM and the TGI [31] was over 100 µM. The TGI [32] was over 100 µM, the TGI [33] was over 100 µM and the TGI [34] was over 100 µM. It also gave a TGI [35] of over 100 µM, a TGI [36] of over 100 µM and a TGI [37] of over 100 µM. The TGI [38] was over 100 µM, the TGI [39] was over 100 µM and the TGI [40] was over 100 µM. It also gave a TGI [41] of over 100 µM, a TGI [42] of 91.1 µM and a TGI [43] of over 100 µM. It also gave a TGI [44] of over 100 µM, a TGI [45] of over 100 µM and a TGI [46] of over 100 µM. The TGI [47] was over 100 µM, the TGI [48] was over 100 µM and the TGI [49] was over 100 µM. It also gave a TGI [50] of over 100 µM, a TGI [52] of over 100 µM and a TGI [53] of over 100 µM. It also gave a TGI [54] of over 100 µM, a TGI [55] of over 100 µM and a TGI [56] of over 100 µM. It also gave a TGI [57] of over 100 µM.
